Data reported in patent US9597375B2, “Coagulation and fibrinolytic cascades modulator” (The Board of Trustees of the University of Illinios, priority 2005, dated 2017).
Entries after “also recorded” stand apart in the source; their conditions may differ. Where two headings read alike, the source gives them in different places.

How the values were obtained:
pooled normal plasma = assay: Dilute PT assay; assay type: biochemical, human
Method: The ability of polyP75 to influence the clotting time of a variety of clotting assays was systematically evaluated, employing commonly used plasma clotting assays including the prothrombin time (PT) assay, the partial thromboplastin time (PTT) assay, the activated partial thromboplastin time (aPTT) assay, a factor Xa clotting assay (XaT), and the thrombin time (TT) assay (FIG. 9). The PT assay, which is conducted by adding a thromboplastin reagent (a source of tissue factor activity and calcium ions) to plasma, drives coagulation through the extrinsic, or tissue factor pathway. The PTT and aPTT assays rely on the contact, or intrinsic, pathway of blood clotting. The XaT assay relies on the presence of factor V, prothrombin and fibrinogen in plasma, while the TT assay relies only on the presence of fibrinogen. Therefore, these assays assess different stages of the blood clotting cascades. All were performed in a coagulometer at 37° C.
Coagulometer-based plasma clotting assays—Recombinant human tissue factor was reconstituted into phospholipid vesicles as previously described, using a mixture of 20% phosphatidylserine and 80% phosphatidylcholine at a phospholipid:tissue factor molar ratio of 8700:1. Blank phospholipid vesicles (PCPS vesicles) composed of 20% phosphatidylserine and 80% phosphatidylcholine (and no tissue factor) were prepared as described. […]
The PT, XaT, aPTT and PTT clotting assays were typically performed in a STart coagulometer (Diagnostica Stago) by pre-incubating 50 μl of human plasma with 50 μl of the indicated clotting reagent at 37° C. for the following times: PT and XaT assays, 120 sec; aPTT and PTT assays, 180 sec. […] The time to clot formation was then measured relative to the point of addition of calcium chloride. The TT clotting assay was performed in the same coagulometer as follows: 50 μl human plasma was pre-warmed to 37° C. for 60 sec, after which 50 μl of pre-warmed TT reagent was added and the time to clot formation was measured. […]

TFPI = biological target: T1, TFPI (Homo sapiens, UniProt P10646); assay type: biochemical
T1 construct: Recombinant, full-length human TFPI was a kind gift of Dr. George Broze; gift of Dr. George Broze, Washington University St. Louis
T1 sequence (P10646 29-304): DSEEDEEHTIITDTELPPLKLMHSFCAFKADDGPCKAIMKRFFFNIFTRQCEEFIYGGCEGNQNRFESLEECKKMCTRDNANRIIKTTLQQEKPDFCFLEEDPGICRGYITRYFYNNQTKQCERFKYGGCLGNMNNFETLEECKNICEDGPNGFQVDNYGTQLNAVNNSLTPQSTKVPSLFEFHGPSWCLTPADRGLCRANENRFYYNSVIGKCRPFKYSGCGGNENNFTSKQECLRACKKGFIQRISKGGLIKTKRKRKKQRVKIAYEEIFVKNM
Method: The hypothesis that polyP might block the anticoagulant effect of TFPI was tested. This was examined in a dilute PT assay in which varying concentrations of recombinant TFPI were added to plasma samples. Plasma normally contains relatively low levels of free TFPI, so adding exogenous TFPI can dramatically lengthen PT clotting times.
Coagulometer-based plasma clotting assays—Recombinant human tissue factor was reconstituted into phospholipid vesicles as previously described [18], using a mixture of 20% phosphatidylserine and 80% phosphatidylcholine at a phospholipid:tissue factor molar ratio of 8700:1. Blank phospholipid vesicles (PCPS vesicles) composed of 20% phosphatidylserine and 80% phosphatidylcholine (and no tissue factor) were prepared as described [18]. The thromboplastin reagent for the PT assay was prepared by diluting relipidated tissue factor to a final concentration of 200 ng/ml tissue factor in TBSA buffer (50 mM Tris-HCl pH 7.5, 100 mM NaCl, 0.02% sodium azide, 0.1% (w/v) bovine serum albumin). The thromboplastin reagent for the dilute PT assay was prepared in the same manner as the reagent for the PT assay, except that the relipidated tissue factor was typically diluted to a final concentration of 1 ng/ml tissue factor in TBSA buffer containing 50 μM PCPS vesicles.
The PT, XaT, aPTT and PTT clotting assays were typically performed in a STart coagulometer (Diagnostica Stago) by pre-incubating 50 μl of human plasma with 50 μl of the indicated clotting reagent at 37° C. for the following times: PT and XaT assays, 120 sec; aPTT and PTT assays, 180 sec. Clotting was then initiated by adding 50 μl of 25 mM calcium chloride solution that had been pre-warmed to 37° C. The time to clot formation was then measured relative to the point of addition of calcium chloride. […] When the effect of TFPI on clotting was tested, TFPI was added to plasma at the indicated concentration immediately before use. When the effect of polyP on clotting was tested, polyP was added to the clotting reagent at the indicated concentration. […]

[1] = system: fibrinolysis in pooled normal plasma; assay: Plasma clot lysis model, clotting initiated by calcium ions and thrombin in presence of plasminogen activator; assay type: biochemical, human
Method: In order to study the effect of polyP on fibrinolysis independent of its effect on clotting times, the model was modified such that clotting was initiated by a mixture of calcium ions and thrombin in the presence of uPA (pooled normal plasma supplemented with 1.4 nM uPA). The amount of thrombin was chosen to yield rapid clotting times, permitting analyses to focus on the lytic phase only. […] In the absence of polyP, the clots subsequently lysed, with a 50% lysis time of 61 min in this experiment. […] The magnitude of the effect of polyP75 on the inhibition of fibrinolysis was dependent on the uPA concentration. At high uPA concentrations the effect of polyP75 could be masked, presumably reflecting a balance situation between uPA and polyP within the clot (data not shown).
Microplate-based assays of plasma clotting and fibrinolysis—Some of the clotting assays were conducted in flat-bottom, polystyrene, 96-well plates (Corning). Turbidity, a measure of clot formation, was quantified at 37° C. by measuring the absorbance of light at 405 nm in a VERSAmax microplate reader (Molecular Devices, Sunnyvale, Calif.). Reactions (100 μl final volume) typically contained the following final concentrations: 30% (v/v) human plasma; 8 mM Tris-HCl buffer, pH 7.4; 0.008% (v/v) Tween-20; 10.6 mM calcium chloride; and, variably, 10 nM thrombin. In some experiments, clotting reactions were initiated by calcium ions alone. In this case, a 1.25× reaction mixture of the above-described components (except calcium chloride) was prepared in a final volume of 80 μl per well. Clotting was then initiated by adding 20 μl of 53 mM calcium chloride and absorbance at 405 nm was monitored. In other experiments, clotting was initiated by a mixture of calcium ions and thrombin. In these cases, to the 80 μl reaction mixtures described above were added 10 μl of 106 mM calcium chloride followed immediately by 10 μl of 100 nM thrombin. […]

[2] = polyP25-75 at 75 μM phosphate equivalents (FIG. 5), short phosphates data not shown

TFPI: Recombinant, full-length human tissue factor pathway inhibitor
dilute PT clotting time (pooled normal plasma; 100 ng/ml TFPI added to pooled normal plasma, no polyP (66 sec without TFPI)): over 160 sec | dilute PT mean clotting time (pooled normal plasma; 200 ng/ml TFPI added, no polyP (59 sec without TFPI)): 294 s | effect of added TFPI on dilute PT clotting time (in words) (pooled normal plasma; TFPI added to pooled normal plasma, no polyP): greatly prolonged the dilute PT clotting time; also recorded: substantially prolonged

sodium tripolyphosphate [polyP3]
blocking of TFPI anticoagulant effect, dependence on chain length (TFPI; 200 ng/ml TFPI, 75 μM phosphate equivalents in dilute thromboplastin reagent (FIG. 12)): did not block TFPI anticoagulant function at all | ability to inhibit fibrinolysis, dependence on chain length [1, 2]: no discernable effect on fibrinolysis

O=P(O)(O)OP(=O)(O)O [PPi, pyrophosphate]
blocking of TFPI anticoagulant effect, dependence on chain length (TFPI): did not block TFPI anticoagulant function at all | ability to inhibit fibrinolysis, dependence on chain length [1, 2]: no discernable effect on fibrinolysis

O=P(O)(O)O [Pi, sodium phosphate]
blocking of TFPI anticoagulant effect, dependence on chain length (TFPI): did not block TFPI anticoagulant function at all | ability to inhibit fibrinolysis, dependence on chain length [1]: no discernable effect on fibrinolysis
